In US8785614B2, “Aberrantly methylated genes in pancreatic cancer” (The Johns Hopkins University, priority 2003, dated 2014):
Where two headings read alike, the source gives them in different places.

Legend:
[1] = tested on: MiaPaCa2 pancreatic cancer cell line
Experimental: Mock-treated cells were cultured with the equivalent volume of PBS alone.
(§1) Total RNA was isolated from cultured cells using TRIZOL reagent (invitrogen, Carlsbad, Calif.) and purified using RNeasy Mini Kit (Qiagen, Valencia, Calif.). First- and second-stranded cDNA was synthesized from 10 μg of total RNA using 17-dT) primer (Genset Corp., La Jolla, Calif.) and Superscript Choice system (Invitrogen). Labeled cRNA was synthesized from the purified cDNA by in vitro transcription reaction using the BioArray High Yield RNA Transcript Labeling Kit (Enzo Diagnostics, Inc., Farmingdale, N.Y.) at 37° C. for 6 h. The cRNA was fragmented at 94° C. for 35 min. in a fragmentation buffer [40 mM Tris-acetate @ pH 8.1, 100 mM potassium acestate, and 30 mM magnesium acetate]. The fragmented cRNA was then hybridized to the Human Genome U133A chips (Affymetrix, Santa Clara, Calif.) with 18462 unique gene/EST transcripts at 45° C. for 16 h. The washing and staining procedure was performed in the Affymetrix Fluidics Station according to the manufacturer's instructions. The probes were then scanned using a laser scanner, and signal intensity for each transcript (background-subtracted and adjusted for noise) was calculated using Microarray Suite Software 5.0 (Affymetrix).
(§2) Fold change analysis of signal intensities obtained from oligonucleotide microarrays between the two treatment groups was performed using Data Mining software (Afrymetrix).
The global changes in gene expression proxies induced by 5Aza-dC in four pancreatic cancer cell lines (AsPCl, Hs766T, MiaPaCa2, and Panel) were determined using the Afrymetrix U133 oligonucleotide microarrays with 18462 probes sets (transcripts) covering over 13000 full-length sequences of known genes.

[2] = tested on: nonneoplastic ductal cell line HPDE
Experimental: as §1, §2

SMILES: Nc1ncn([C@H]2C[C@H](O)[C@@H](CO)O2)c(=O)n1 [5Aza-dC, 5 aza 2′ deoxycytidine]
- Fold-change after 5Aza-dC treatment ([1]; ANGPT2, MiaPaCa2): 2.27 fold
- Fold-change after 5Aza-dC treatment ([1]; BARD1, MiaPaCa2): −1.3 fold
- Fold-change after 5Aza-dC treatment ([1]; BNIP3, MiaPaCa2): 21.32 fold
- Fold-change after 5Aza-dC treatment ([1]; BST2, MiaPaCa2): 8.59 fold
- Fold-change after 5Aza-dC treatment ([1]; CACNA1G, MiaPaCa2): 1.61 fold
- Fold-change after 5Aza-dC treatment ([1]; CCNE2, MiaPaCa2): 1.09 fold
- Fold-change after 5Aza-dC treatment ([1]; CDH3, MiaPaCa2): 5.79 fold
- Fold-change after 5Aza-dC treatment ([1]; CDKN1A (p21), MiaPaCa2): 7.04 fold
- Fold-change after 5Aza-dC treatment ([1]; CDKN1C, MiaPaCa2): 2.28 fold
- Fold-change after 5Aza-dC treatment ([1]; CLDN5, MiaPaCa2): 1.67 fold
- Fold-change after 5Aza-dC treatment ([1]; CSF1, MiaPaCa2): 4.23 fold
- Fold-change after 5Aza-dC treatment ([1]; DR3, MiaPaCa2): 2.12 fold
- Fold-change after 5Aza-dC treatment ([1]; FOXE1, MiaPaCa2): 3.8 fold
- Fold-change after 5Aza-dC treatment ([1]; GAGE1, MiaPaCa2): 6.7 fold
- Fold-change after 5Aza-dC treatment ([1]; GAGE3, MiaPaCa2): 15.22 fold
- Fold-change after 5Aza-dC treatment ([1]; GAGE4, MiaPaCa2): 47.6 fold
- Fold-change after 5Aza-dC treatment ([1]; GAGE6, MiaPaCa2): 24.03 fold
- Fold-change after 5Aza-dC treatment ([1]; GAGE7, MiaPaCa2): 54.35 fold
- Fold-change after 5Aza-dC treatment ([1]; HOXA1, MiaPaCa2): 2.56 fold
- Fold-change after 5Aza-dC treatment ([1]; IGF2, MiaPaCa2): 0.81 fold
- Fold-change after 5Aza-dC treatment ([1]; IL1R1, MiaPaCa2): −1.77 fold
- Fold-change after 5Aza-dC treatment ([1]; ISG20, MiaPaCa2): 21.28 fold
- Fold-change after 5Aza-dC treatment ([1]; JPH3, MiaPaCa2): 1.4 fold
- Fold-change after 5Aza-dC treatment ([1]; KLK10, MiaPaCa2): 136.95 fold
- Fold-change after 5Aza-dC treatment ([1]; LDOC1, MiaPaCa2): −1.01 fold
- Fold-change after 5Aza-dC treatment ([1]; LHX1, MiaPaCa2): 1.89 fold
- Fold-change after 5Aza-dC treatment ([1]; MAGE1, MiaPaCa2): 2.27 fold
- Fold-change after 5Aza-dC treatment ([1]; MATN1, MiaPaCa2): −1.01 fold
- transcripts with >5-fold increase, share of the 18462 transcripts analyzed ([1]; MiaPaCa2): 1.4%
- transcripts with substantial increase (>5-fold) in signal intensities ([1]; MiaPaCa2, vs mock-treated): 251 transcripts
- Fold-change after 5Aza-dC treatment ([1]; NEFH, MiaPaCa2): 6.73 fold
- Fold-change after 5Aza-dC treatment ([1]; NPTX2, MiaPaCa2): 6.4 fold
- Fold-change after 5Aza-dC treatment ([1]; PAX6, MiaPaCa2): −1.12 fold
- Fold-change after 5Aza-dC treatment ([1]; PDYN, MiaPaCa2): 3.48 fold
- Fold-change after 5Aza-dC treatment ([1]; PLAT, MiaPaCa2): 6.4 fold
- Fold-change after 5Aza-dC treatment ([1]; PLEK2, MiaPaCa2): 7.5 fold
- Fold-change after 5Aza-dC treatment ([1]; SARP2, MiaPaCa2): 38.33 fold
- Fold-change after 5Aza-dC treatment ([1]; SMARCA1, MiaPaCa2): −1.07 fold
- Fold-change after 5Aza-dC treatment ([1]; ST14, MiaPaCa2): 1.48 fold
- Fold-change after 5Aza-dC treatment ([1]; TIMP3, MiaPaCa2): 1 fold
- Fold-change after 5Aza-dC treatment ([1]; TJP2, MiaPaCa2): 8.61 fold
- Fold-change after 5Aza-dC treatment ([1]; TNF, MiaPaCa2): 31.63 fold
- Fold-change after 5Aza-dC treatment ([1]; UCHL1, MiaPaCa2): 5.27 fold
- Fold-change after 5Aza-dC treatment ([1]; WNT7A, MiaPaCa2): 6.24 fold
- Fold-change after 5Aza-dC treatment ([1]; XAGE-1, MiaPaCa2): 12.99 fold
- Fold-change after 5Aza-dC treatment ([1]; granulocytemacrophage colony-stimulating factor (M11734), MiaPaCa2): 3.97 fold
- Fold-change after 5Aza-dC treatment ([1]; interferon, alpha-inducible protein (NM_022873), MiaPaCa2): 11.03 fold
- Fold-change after 5Aza-dC treatment ([1]; p53-induced protein (PIGII), MiaPaCa2): 5.45 fold
- Fold-change after 5Aza-dC treatment ([1]; reprimo, MiaPaCa2): −1.09 fold
- Fold-change after 5Aza-dC treatment ([1]; stratifin (14-3-3 sigma), MiaPaCa2): 34.77 fold
- Fold-change after 5Aza-dC treatment ([1]; stromal antigen 3 (STAG5), MiaPaCa2): 4.96 fold
- Fold-change after 5Aza-dC treatment ([1]; testin, MiaPaCa2): 9.61 fold
- Fold-change after 5Aza-dC treatment ([2]; ANGPT2, HPDE): −0.4 fold
- Fold-change after 5Aza-dC treatment ([2]; BARD1, HPDE): 2.23 fold
- Fold-change after 5Aza-dC treatment ([2]; BNIP3, HPDE): 1.23 fold
- Fold-change after 5Aza-dC treatment ([2]; BST2, HPDE): −1.06 fold
- Fold-change after 5Aza-dC treatment ([2]; CACNA1G, HPDE): 0.39 fold
- Fold-change after 5Aza-dC treatment ([2]; CCNE2, HPDE): 1.5 fold
- Fold-change after 5Aza-dC treatment ([2]; CDH3, HPDE): −1.08 fold
- Fold-change after 5Aza-dC treatment ([2]; CDKN1A (p21), HPDE): 1.33 fold
- Fold-change after 5Aza-dC treatment ([2]; CDKN1C, HPDE): 1.07 fold
- Fold-change after 5Aza-dC treatment ([2]; CLDN5, HPDE): 2.45 fold
- Fold-change after 5Aza-dC treatment ([2]; CSF1, HPDE): −1.03 fold
- Fold-change after 5Aza-dC treatment ([2]; DR3, HPDE): 1.01 fold
- Fold-change after 5Aza-dC treatment ([2]; FOXE1, HPDE): −1.1 fold
- Fold-change after 5Aza-dC treatment ([2]; GAGE1, HPDE): −0.55 fold
- Fold-change after 5Aza-dC treatment ([2]; GAGE3, HPDE): 1.33 fold
- Fold-change after 5Aza-dC treatment ([2]; GAGE4, HPDE): 3.33 fold
- Fold-change after 5Aza-dC treatment ([2]; GAGE6, HPDE): 2.41 fold
- Fold-change after 5Aza-dC treatment ([2]; GAGE7, HPDE): 3.36 fold
- Fold-change after 5Aza-dC treatment ([2]; HOXA1, HPDE): −1.23 fold
- transcripts induced, share of transcripts analyzed ([2]; HPDE): 0.5%
- transcripts whose expression was induced after drug treatment ([2]; HPDE): 101 transcripts
- Fold-change after 5Aza-dC treatment ([2]; IGF2, HPDE): −0.34 fold
- Fold-change after 5Aza-dC treatment ([2]; IL1R1, HPDE): −1.81 fold
- Fold-change after 5Aza-dC treatment ([2]; ISG20, HPDE): 0.89 fold
- Fold-change after 5Aza-dC treatment ([2]; JPH3, HPDE): 2.14 fold
- Fold-change after 5Aza-dC treatment ([2]; KLK10, HPDE): 3.75 fold
- Fold-change after 5Aza-dC treatment ([2]; LDOC1, HPDE): −1.12 fold
- Fold-change after 5Aza-dC treatment ([2]; LHX1, HPDE): 1.01 fold
- Fold-change after 5Aza-dC treatment ([2]; MAGE1, HPDE): 1.7 fold
- Fold-change after 5Aza-dC treatment ([2]; MATN1, HPDE): −125 fold
- Fold-change after 5Aza-dC treatment ([2]; NEFH, HPDE): −1.08 fold
- Fold-change after 5Aza-dC treatment ([2]; NPTX2, HPDE): 2.42 fold
- Fold-change after 5Aza-dC treatment ([2]; PAX6, HPDE): 2.57 fold
- Fold-change after 5Aza-dC treatment ([2]; PDYN, HPDE): −1.04 fold
- Fold-change after 5Aza-dC treatment ([2]; PLAT, HPDE): 4.9 fold
- Fold-change after 5Aza-dC treatment ([2]; PLEK2, HPDE): 1.2 fold
- Fold-change after 5Aza-dC treatment ([2]; SARP2, HPDE): 1.11 fold
- Fold-change after 5Aza-dC treatment ([2]; SMARCA1, HPDE): 3.54 fold
- Fold-change after 5Aza-dC treatment ([2]; ST14, HPDE): −1.05 fold
- Fold-change after 5Aza-dC treatment ([2]; TIMP3, HPDE): 1.32 fold
- Fold-change after 5Aza-dC treatment ([2]; TJP2, HPDE): 1.41 fold
- Fold-change after 5Aza-dC treatment ([2]; TNF, HPDE): −1.2 fold
- Fold-change after 5Aza-dC treatment ([2]; UCHL1, HPDE): 1.95 fold
- Fold-change after 5Aza-dC treatment ([2]; WNT7A, HPDE): −1.23 fold
- Fold-change after 5Aza-dC treatment ([2]; XAGE-1, HPDE): −0.43 fold
- Fold-change after 5Aza-dC treatment ([2]; granulocytemacrophage colony-stimulating factor (M11734), HPDE): −0.94 fold
- Fold-change after 5Aza-dC treatment ([2]; interferon, alpha-inducible protein (NM_022873), HPDE): 1.33 fold
- Fold-change after 5Aza-dC treatment ([2]; p53-induced protein (PIGII), HPDE): −1.58 fold
- Fold-change after 5Aza-dC treatment ([2]; reprimo, HPDE): 1.06 fold
- Fold-change after 5Aza-dC treatment ([2]; stratifin (14-3-3 sigma), HPDE): −1.46 fold
- Fold-change after 5Aza-dC treatment ([2]; stromal antigen 3 (STAG5), HPDE): 4.8 fold
- Fold-change after 5Aza-dC treatment ([2]; testin, HPDE): 1.09 fold
